Test results taken from ChEMBL document CHEMBL1201862, “PubChem BioAssay data set” (2004).
Active and inactive are the calls of the source.

Tests used:
[1] = P. falciparum Dd2 growth inhibitors, dose response, SYBR Green, cherry-picked samples (AID 1159567); assay type: functional, cell-based
[2] = toxicity to human hepatoma HepG2 cells – cell-based, cherry-picked samples, cytotoxicity control, dose response (AID 1159577); assay type: functional
Paired box protein Pax-8 = Paired box protein Pax-8 (Homo sapiens, UniProt Q06710); assay: PAX8 transcriptional activity inhibition in RMG-I – RMG-I cells, luciferase, cherry-pick, dose response (AID 687027); assay type: functional, cell-based;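 also: luciferase reporter driven by Pax8 target thyroperoxidase promoter measured by SteadyGlo luminescence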
Sequence of Paired box protein Pax-8 (Q06710 whole entry): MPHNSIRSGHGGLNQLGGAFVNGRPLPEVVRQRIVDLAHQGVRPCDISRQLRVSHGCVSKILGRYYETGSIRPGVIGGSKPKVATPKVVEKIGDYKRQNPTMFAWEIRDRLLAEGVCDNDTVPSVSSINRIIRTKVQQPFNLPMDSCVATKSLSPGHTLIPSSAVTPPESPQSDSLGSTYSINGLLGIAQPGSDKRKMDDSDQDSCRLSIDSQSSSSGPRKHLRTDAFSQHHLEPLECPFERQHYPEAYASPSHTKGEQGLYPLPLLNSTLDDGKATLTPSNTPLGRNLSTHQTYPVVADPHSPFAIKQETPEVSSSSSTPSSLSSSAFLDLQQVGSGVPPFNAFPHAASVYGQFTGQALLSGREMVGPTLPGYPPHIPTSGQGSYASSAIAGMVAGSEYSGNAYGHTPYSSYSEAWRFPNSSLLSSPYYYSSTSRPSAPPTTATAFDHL

[3] = OVCAR-3 cell viability loss – plate reader, dry powder samples, PAX8 inhibitor project, dose response (AID 743044); assay type: functional, cell-based
[4] = target: T1, Histone-lysine N-methyltransferase NSD2 (Homo sapiens, UniProt O96028); assay type: biochemical
T1 sequence (O96028 whole entry): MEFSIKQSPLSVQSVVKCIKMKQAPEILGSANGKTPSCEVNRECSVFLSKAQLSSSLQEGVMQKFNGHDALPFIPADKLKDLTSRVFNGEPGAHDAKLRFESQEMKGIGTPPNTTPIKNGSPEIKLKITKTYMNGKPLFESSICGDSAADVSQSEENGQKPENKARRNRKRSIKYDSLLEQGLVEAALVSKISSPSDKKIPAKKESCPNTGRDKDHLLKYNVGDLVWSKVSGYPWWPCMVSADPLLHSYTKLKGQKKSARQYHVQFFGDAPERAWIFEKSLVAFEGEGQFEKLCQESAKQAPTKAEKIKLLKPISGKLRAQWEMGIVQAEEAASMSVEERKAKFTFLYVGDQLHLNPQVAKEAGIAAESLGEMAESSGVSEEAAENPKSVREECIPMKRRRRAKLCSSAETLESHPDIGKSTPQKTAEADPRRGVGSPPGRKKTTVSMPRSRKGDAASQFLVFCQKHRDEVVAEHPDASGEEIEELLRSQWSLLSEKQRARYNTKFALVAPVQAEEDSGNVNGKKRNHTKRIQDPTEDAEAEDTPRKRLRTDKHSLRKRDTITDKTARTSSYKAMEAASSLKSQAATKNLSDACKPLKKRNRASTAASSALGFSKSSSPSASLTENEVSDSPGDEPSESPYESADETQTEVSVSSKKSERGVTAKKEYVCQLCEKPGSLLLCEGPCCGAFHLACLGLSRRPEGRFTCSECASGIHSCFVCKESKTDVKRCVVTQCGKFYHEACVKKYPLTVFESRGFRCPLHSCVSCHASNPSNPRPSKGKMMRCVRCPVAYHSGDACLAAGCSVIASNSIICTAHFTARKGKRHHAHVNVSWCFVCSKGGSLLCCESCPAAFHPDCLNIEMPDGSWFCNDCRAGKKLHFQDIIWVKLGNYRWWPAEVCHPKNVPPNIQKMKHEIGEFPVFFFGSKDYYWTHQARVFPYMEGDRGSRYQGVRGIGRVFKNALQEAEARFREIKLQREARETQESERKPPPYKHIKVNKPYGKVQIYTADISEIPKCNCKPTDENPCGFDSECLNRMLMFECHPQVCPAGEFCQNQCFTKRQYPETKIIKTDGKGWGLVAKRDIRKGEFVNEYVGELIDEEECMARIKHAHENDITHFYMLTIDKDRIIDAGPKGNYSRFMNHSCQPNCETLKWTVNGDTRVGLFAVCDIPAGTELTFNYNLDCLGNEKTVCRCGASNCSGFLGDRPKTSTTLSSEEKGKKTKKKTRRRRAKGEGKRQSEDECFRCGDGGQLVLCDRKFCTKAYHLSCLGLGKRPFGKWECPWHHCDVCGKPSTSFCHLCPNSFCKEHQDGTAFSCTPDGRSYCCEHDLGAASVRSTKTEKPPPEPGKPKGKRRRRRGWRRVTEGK

[5] = target: T2, Apoptotic protease-activating factor 1 (Homo sapiens, UniProt O14727); assay type: functional
T2 sequence (O14727 whole entry): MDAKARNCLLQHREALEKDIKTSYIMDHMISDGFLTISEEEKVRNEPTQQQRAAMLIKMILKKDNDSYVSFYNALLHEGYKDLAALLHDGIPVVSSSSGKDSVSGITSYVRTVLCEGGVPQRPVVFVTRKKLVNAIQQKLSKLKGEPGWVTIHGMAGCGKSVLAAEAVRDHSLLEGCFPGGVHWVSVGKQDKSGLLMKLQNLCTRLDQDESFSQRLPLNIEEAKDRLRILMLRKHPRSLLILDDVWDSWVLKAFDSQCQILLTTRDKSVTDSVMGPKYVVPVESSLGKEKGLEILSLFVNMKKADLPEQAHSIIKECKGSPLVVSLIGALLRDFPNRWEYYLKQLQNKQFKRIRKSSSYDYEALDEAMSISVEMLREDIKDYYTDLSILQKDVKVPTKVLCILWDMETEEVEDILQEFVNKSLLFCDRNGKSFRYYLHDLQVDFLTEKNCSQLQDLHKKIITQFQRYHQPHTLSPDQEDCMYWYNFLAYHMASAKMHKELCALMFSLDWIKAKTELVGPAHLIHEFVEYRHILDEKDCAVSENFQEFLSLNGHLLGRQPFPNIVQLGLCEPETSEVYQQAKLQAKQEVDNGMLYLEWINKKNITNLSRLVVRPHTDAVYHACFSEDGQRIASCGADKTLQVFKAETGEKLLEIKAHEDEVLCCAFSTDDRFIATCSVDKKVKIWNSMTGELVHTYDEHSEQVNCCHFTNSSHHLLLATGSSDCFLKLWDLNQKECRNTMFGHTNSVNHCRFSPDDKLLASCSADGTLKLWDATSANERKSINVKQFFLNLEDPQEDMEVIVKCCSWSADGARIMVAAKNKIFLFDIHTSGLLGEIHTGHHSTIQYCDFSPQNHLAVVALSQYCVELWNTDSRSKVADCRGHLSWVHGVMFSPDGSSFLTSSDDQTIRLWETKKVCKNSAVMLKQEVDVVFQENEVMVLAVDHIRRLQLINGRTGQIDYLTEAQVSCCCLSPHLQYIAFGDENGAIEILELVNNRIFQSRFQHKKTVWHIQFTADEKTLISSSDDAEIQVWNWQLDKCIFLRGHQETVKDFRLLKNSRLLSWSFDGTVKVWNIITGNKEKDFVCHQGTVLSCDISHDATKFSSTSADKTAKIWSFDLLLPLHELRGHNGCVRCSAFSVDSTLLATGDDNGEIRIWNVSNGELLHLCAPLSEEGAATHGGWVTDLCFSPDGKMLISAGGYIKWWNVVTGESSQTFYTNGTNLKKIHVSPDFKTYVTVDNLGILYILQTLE

BJ [6] = assay: BJ-TERT fibroblast viability loss – cell-based, RAS-independent, luminescence, dose response (AID 1933); assay type: functional; details: Homo sapiens
BJ [7] = assay: cells; assay type: functional, cell-based; details: Homo sapiens
BJ [8] = assay: BJ-TERT-LT-ST fibroblast viability loss – cell-based, RAS-independent, luminescence, dose response (AID 1935); assay type: functional; details: Homo sapiens;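 also: BJ fibroblasts immortalized with TERT plus LT and ST oncogenes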
[9] = DRD fibroblast viability loss – cell-based, non-viral oncogenic, luminescence, dose response (AID 1934); assay type: functional; details: Homo sapiens
[10] = target: T3, Microphthalmia-associated transcription factor (Homo sapiens, UniProt O75030); assay: reducers of TRPM1 reporter luminescence, concentration series – cell-based, SK-MEL-5, cherry-picked, set 3, MITF inhibitor project, dose response (AID 493073); assay type: functional;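 also: SK-MEL-5 melanoma cells with luciferase driven by the MITF target TRPM1 promoter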
T3 sequence (O75030 whole entry): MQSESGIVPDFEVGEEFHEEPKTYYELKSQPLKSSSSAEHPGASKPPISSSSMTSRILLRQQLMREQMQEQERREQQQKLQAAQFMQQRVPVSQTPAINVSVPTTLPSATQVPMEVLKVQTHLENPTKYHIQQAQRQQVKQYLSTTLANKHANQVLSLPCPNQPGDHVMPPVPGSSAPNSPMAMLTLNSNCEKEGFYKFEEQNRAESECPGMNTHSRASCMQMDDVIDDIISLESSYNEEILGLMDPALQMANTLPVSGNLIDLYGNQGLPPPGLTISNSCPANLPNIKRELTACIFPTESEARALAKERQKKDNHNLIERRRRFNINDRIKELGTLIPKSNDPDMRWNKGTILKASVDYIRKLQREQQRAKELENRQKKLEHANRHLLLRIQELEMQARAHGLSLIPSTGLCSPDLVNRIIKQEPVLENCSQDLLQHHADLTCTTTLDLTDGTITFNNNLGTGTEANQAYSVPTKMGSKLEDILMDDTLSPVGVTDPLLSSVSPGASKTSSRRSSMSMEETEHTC

BJ [11] = assay: growth inhibition of engineered Ras-driven BJ cells – cell-based, alamar blue fluorescence, cherrypicked samples, dose response (AID 2631); assay type: functional; details: Homo sapiens;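 also: confirmatory dose-response assay in RAS-dependent BJ fibroblasts engineered with TERT, LT and ST, with cytotoxicity read by fluorescence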
[12] = target: T4, Endoribonuclease toxin MazF (Escherichia coli K-12, UniProt P0AE70); assay: activation of MazEF endoribonuclease cleavage – biochemical, fluorescence, single-stranded RNA substrate, uHTS hits, dose response (AID 588481); assay type: functional
T4 sequence (P0AE70 whole entry): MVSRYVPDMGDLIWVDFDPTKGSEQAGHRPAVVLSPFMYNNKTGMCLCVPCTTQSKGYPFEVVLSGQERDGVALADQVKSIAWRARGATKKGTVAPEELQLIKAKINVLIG

[13] = target: T4, Endoribonuclease toxin MazF; assay: substrate-only fluorescence increase artefacts – biochemical, single-stranded RNase substrate, counter-screen for MazEF activator project, dose response (AID 588502); assay type: functional

In the case of `N#Cc1cccc(-c2ccc([C@@H]3[C@@H]4CN(Cc5ccccc5)C[C@H]3N4)cc2)c1`, the AC50 [1] is reported as 5.57 µM (active) and the AC50 [2] is reported as 15.4 µM (active).
For `O=C(Cc1cccnc1)N1CCCCN2[C@H](C1)[C@H](c1ccc(C#CC3CCCC3)cc1)[C@@H]2CO`, the AC50 (Paired box protein Pax-8) was 5.07 µM (active) and the AC50 [3] was 9.02 µM (active).
For `CCN(CC)CCNC(=O)c1ccc(CS(=O)(=O)c2ccccc2C)o1`, the AC50 [4] was > 20 µM (inactive).
With `COCCN1C=C2C(=O)C(C)(OC(=O)CCC(=O)OC)C(=O)C(Br)=C2C=C1c1ccc(OC)cc1` (stereo unspecified) the IC50 [5] was 11 µM (active).
In the case of `CC(=O)c1cccc(NC(=O)/C=C/c2ccc([N+](=O)[O-])s2)c1`, the EC50 (BJ [6]) is reported as 4.44 µM (active), the EC50 (BJ [7]) is reported as > 150 µM (inconclusive) and the EC50 (BJ [8]) is reported as 4.95 µM (inconclusive). For the same compound, the EC50 [9] was 5.53 µM (active), the AC50 [10] was 7.16 µM (active) and the EC50 (BJ [11]) was 545 nM (inconclusive).
With `CCCCn1c(N)c(N(CCC(C)C)C(=O)COC(=O)c2ccc([N+](=O)[O-])s2)c(=O)[nH]c1=O` the AC50 (Paired box protein Pax-8) was 8.14 µM (active) and the AC50 [4] was 12.3 µM (active).
In the case of `Cc1cc(NC(=O)/C(C#N)=C\c2ccc(-c3ccc(SC(F)F)cc3)o2)n(-c2ccccc2)n1`, the EC50 [12] is reported as > 99 µM (inactive) and the EC50 [13] is reported as 22.8 µM (inactive).
